The values that follow come from PMC4076017 (ACS Chemical Biology, 2014).

Usually IC50 stands for the concentration that inhibits the measured activity by half. A high value points to weaker potency. What is called inhibition is the percentage by which the read-out fell short of the control. One may read the Kd as a measure of binding affinity in units of concentration. A higher Kd goes with a looser complex.

In data set [1] the target is T1, YpDHPS (Yersinia pestis, UniProt A0A2S9PLG4). The experiment in a line: biochemical.
T1 sequence (A0A2S9PLG4 1-277): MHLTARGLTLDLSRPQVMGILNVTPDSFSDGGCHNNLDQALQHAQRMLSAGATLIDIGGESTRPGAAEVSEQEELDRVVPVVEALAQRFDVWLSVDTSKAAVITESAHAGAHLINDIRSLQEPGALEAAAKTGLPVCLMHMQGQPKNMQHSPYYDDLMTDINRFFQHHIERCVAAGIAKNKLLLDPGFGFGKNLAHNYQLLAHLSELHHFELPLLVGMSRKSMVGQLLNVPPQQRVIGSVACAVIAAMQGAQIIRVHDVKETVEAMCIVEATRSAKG
Data set [2] deals with T2, BaDHPS (Bacillus anthracis, UniProt Q81VW8). Briefly: biochemical. Type of data set: binding.
T2 sequence (Q81VW8 1-280): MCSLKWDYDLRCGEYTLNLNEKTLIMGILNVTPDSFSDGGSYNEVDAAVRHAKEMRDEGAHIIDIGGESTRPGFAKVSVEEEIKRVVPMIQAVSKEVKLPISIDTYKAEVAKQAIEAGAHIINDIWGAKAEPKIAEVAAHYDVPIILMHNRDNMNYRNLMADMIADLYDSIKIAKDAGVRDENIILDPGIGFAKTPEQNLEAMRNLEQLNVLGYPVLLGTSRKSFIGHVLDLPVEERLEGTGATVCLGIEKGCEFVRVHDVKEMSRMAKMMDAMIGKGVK
Another data set in a line: Aqueous solubility. Format: physicochemical.
A further data set is described as follows: Antimicrobial activity. Format: cell-based.
The target of data set [3] is T2, BaDHPS. The experiment in a line: biochemical.
Data set [4] can be described thus: LC-MS stability in conditions that recapitulate the crystallization conditions. The note with it: conditions that recapitulate the crystallization conditions (pH and time). Type of data set: physicochemical.
For data set [5], the target named is T2, BaDHPS. Type of data set: biochemical.
Data set [6] deals with T3, SaDHPS (Staphylococcus aureus, UniProt O05701). Briefly: Michaelis-Menten kinetics in the presence of compound 11. Type of data set: biochemical. Particulars: pABA 0 to 10 μM.
T3 sequence (O05701 whole entry): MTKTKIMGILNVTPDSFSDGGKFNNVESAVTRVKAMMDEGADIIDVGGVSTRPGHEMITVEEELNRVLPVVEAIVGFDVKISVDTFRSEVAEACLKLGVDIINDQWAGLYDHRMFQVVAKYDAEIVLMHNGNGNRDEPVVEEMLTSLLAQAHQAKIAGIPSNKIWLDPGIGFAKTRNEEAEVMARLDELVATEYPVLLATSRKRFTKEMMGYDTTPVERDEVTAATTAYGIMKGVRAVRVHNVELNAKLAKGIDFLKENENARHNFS
In data set [7] the target is T3, SaDHPS. The experiment in a line: DHPS enzyme inhibition assay. Type of data set: biochemical.
Data set [8] addresses T1, YpDHPS. Type of data set: biochemical.

Values joined by “and” are separate entries in the source; they are usually repeats but may differ in a detail not shown here. Identical values can stand only once.

On to `FC(F)(F)c1ccc(/C=N/Cc2ccc(C(F)(F)F)cc2)cc1` [Compound 11, (E)-N-(4-(Trifluoromethyl)benzylidene)-1-(4-(trifluoromethyl)phenyl) Methanamine], for which the figures for the IC50 at YpDHPS [1], at BaDHPS [3] and against SaDHPS [7] were 31 µM, 50 µM and 17 µM, respectively. Besides, the inhibition at 250 µM on YpDHPS [1] (read-out: inhibition of YpDHPS), at BaDHPS [3] (read-out: inhibition of BaDHPS) and on SaDHPS [7] (read-out: inhibition of SaDHPS) was 100% throughout. At BaDHPS [2], this molecule came in with a Kd of 130 ± 1 µM. On BaDHPS [2], the “increase in binding affinity of pABA to DHPS in the presence of 11” value is given as 2 fold. For the same molecule, the aqueous solubility result in “Aqueous solubility” is listed as “limited aqueous solubility”. In addition, the antimicrobial activity entry in the data set “Antimicrobial activity” was “lacks antimicrobial activity”. The “stability by liquid chromatography-mass spectrometric analysis” value in data set [4] is listed as “stable”. For the same molecule, the Kmobs is 1.0 µM and 0.74 µM on BaDHPS [5]; 2.7 µM at SaDHPS [6] (50 μM compd 11, DHPP 20 μM); 0.38 µM on SaDHPS [6] (100 μM compd 11, DHPP 20 μM); 1.8 µM and 1.2 µM at YpDHPS [8]. Moreover, the Vmaxobs is 106.7 nM/min and 70.81 nM/min on BaDHPS [5]; 211.2 nM/min at SaDHPS [6] (50 μM compd 11, DHPP 20 μM); 31.19 nM/min on SaDHPS [6] (100 μM compd 11, DHPP 20 μM).
